The test system of assay [1] is Cryptococcus neoformans. Nature of the assay: Antifungal activity against Cryptococcus neoformans isolate CN2 measured after 48 hrs by CLSI M27-A3 protocol based method. It is filed as functional. Particulars: Cryptococcus neoformans, isolate CN2, 48 h; read-out: MIC.
For assay [2], the system named is Candida albicans. Kind of assay: Antifungal activity against Candida albicans ATCC 10231 measured after 48 hrs by CLSI M27-A3 protocol based method. In kind it is functional. The following applies: ATCC 10231, 48 h.
Assay [3] deals with Candida albicans. Kind of assay: Antifungal activity against Candida albicans ATCC 64124 measured after 48 hrs by CLSI M27-A3 protocol based method. In kind it is functional. Particulars: Candida albicans, ATCC 64124, 48 h; read-out: MIC.
For assay [4], the system named is Candida albicans. Kind of assay: Antifungal activity against fluconazole/ITC-susceptible Candida albicans ATCC MYA-2876 measured after 48 hrs by CLSI M27-A3 protocol based method. The following applies: Candida albicans, ATCC MYA-2876, 48 h. It is filed as functional.
Assay [5] has as its system Candida albicans. Kind of assay: Antifungal activity against fluconazole/ITC-resistant Candida albicans ATCC 90819 measured after 48 hrs by CLSI M27-A3 protocol based method. It is filed as functional. The following applies: Candida albicans, ATCC 90819, 48 h; read-out: MIC.
Assay [6] has as its system Candida albicans. Kind of assay: Antifungal activity against fluconazole/ITC-susceptible Candida albicans ATCC MYA-2310 measured after 48 hrs by CLSI M27-A3 protocol based method. It is filed as functional. Particulars: Candida albicans, ATCC MYA-2310, 48 h; read-out: MIC.
Assay [7] relates to Candida albicans. Nature of the assay: Antifungal activity against fluconazole/ITC-resistant Candida albicans ATCC MYA-1237 measured after 48 hrs by CLSI M27-A3 protocol based method. It is filed as functional. The following applies: Candida albicans, ATCC MYA-1237, 48 h; read-out: MIC.
For assay [8], the system named is Candida albicans. Kind of assay: Antifungal activity against fluconazole/ITC-resistant Candida albicans ATCC MYA-1003 measured after 48 hrs by CLSI M27-A3 protocol based method. It is filed as functional. Particulars: Candida albicans, ATCC MYA-1003, 48 h; read-out: MIC.
The test system of assay [9] is Nakaseomyces glabratus. Nature of the assay: Antifungal activity against Candida glabrata ATCC 2001 measured after 48 hrs by CLSI M27-A3 protocol based method. In kind it is functional, CBS 138. Particulars: Nakaseomyces glabratus, CBS 138, 48 h; read-out: MIC.
Assay [10] relates to Pichia kudriavzevii. Kind of assay: Antifungal activity against Candida krusei ATCC 6258 measured after 48 hrs by CLSI M27-A3 protocol based method. In kind it is functional. Particulars: Pichia kudriavzevii, ATCC 6258, 48 h.
The subject of assay [11] is Candida parapsilosis. Nature of the assay: Antifungal activity against Candida parapsilosis ATCC 22019 measured after 48 hrs by CLSI M27-A3 protocol based method. In kind it is functional. The following applies: Lodderomyces parapsilosis, ATCC 22019, 48 h.
For assay [12], the system named is Aspergillus nidulans. Nature of the assay: Antifungal activity against Aspergillus nidulans ATCC 38163 measured after 48 hrs by CLSI M38-A2 protocol based method. Particulars: ATCC 38163, 48 h. It is filed as functional.
For assay [13], the system named is Aspergillus flavus. Kind of assay: Antifungal activity against Aspergillus flavus ATCC MYA-3631 measured after 48 hrs by CLSI M38-A2 protocol based method. In kind it is functional. Particulars: ATCC MYA-3631, 48 h.
Assay [14] deals with Aspergillus terreus. Nature of the assay: Antifungal activity against Aspergillus terreus ATCC MYA-3633 measured after 48 hrs by CLSI M38-A2 protocol based method. In kind it is functional. The following applies: ATCC MYA-3633, 48 h.
The subject of assay [15] is Nakaseomyces glabratus. Nature of the assay: Antifungal activity against Candida glabrata isolate CG1 measured after 48 hrs by CLSI M27-A3 protocol based method. In kind it is functional. Particulars: Nakaseomyces glabratus, 48 h; read-out: MIC.
The subject of assay [16] is Nakaseomyces glabratus. Kind of assay: Antifungal activity against Candida glabrata isolate CG2 measured after 48 hrs by CLSI M27-A3 protocol based method. The following applies: Nakaseomyces glabratus, isolate CG2, 48 h; read-out: MIC. In kind it is functional.
Assay [17] has as its system Nakaseomyces glabratus. Nature of the assay: Antifungal activity against Candida glabrata isolate CG3 measured after 48 hrs by CLSI M27-A3 protocol based method. It is filed as functional. Particulars: Nakaseomyces glabratus, 48 h; read-out: MIC.
The test system of assay [18] is Candida parapsilosis. Kind of assay: Antifungal activity against Candida parapsilosis isolate CP1 measured after 48 hrs by CLSI M27-A3 protocol based method. It is filed as functional. The following applies: Lodderomyces parapsilosis, isolate CP1, 48 h.
In assay [19] the test system is Candida parapsilosis. Kind of assay: Antifungal activity against Candida parapsilosis isolate CP2 measured after 48 hrs by CLSI M27-A3 protocol based method. In kind it is functional. Particulars: Lodderomyces parapsilosis, isolate CP2, 48 h.
Assay [20] has as its system Cryptococcus neoformans. Kind of assay: Antifungal activity against Cryptococcus neoformans isolate CN1 measured after 48 hrs by CLSI M27-A3 protocol based method. The following applies: isolate CN1, 48 h. In kind it is functional.
Assay [21] relates to Cryptococcus neoformans. Nature of the assay: Antifungal activity against Cryptococcus neoformans isolate CN3 measured after 48 hrs by CLSI M27-A3 protocol based method. It is filed as functional. Particulars: Cryptococcus neoformans, isolate CN3, 48 h; read-out: MIC.
The subject of assay [22] is Candida parapsilosis. Kind of assay: Antifungal activity against Candida parapsilosis isolate CP3 measured after 48 hrs by CLSI M27-A3 protocol based method. Particulars: Lodderomyces parapsilosis, isolate CP3, 48 h. It is filed as functional.

Values after ≈ are worked out from the molar mass of the structure shown.

As for `CCCCCOCCCCCCNCC(O)(Cn1cncn1)c1ccc(F)cc1F` (stereo not drawn), the MIC in [1] was 4.6 µM (≈ 1.95 µg/mL); in assay [2], 9.2 µM (≈ 3.91 µg/mL); in [3], greater than 73.7 µM; in [4] it was 73.7 µM (≈ 31.3 µg/mL); in assay [5], 9.2 µM (≈ 3.91 µg/mL); in assay [6] it was 36.7 µM (≈ 15.6 µg/mL). Moreover, the MIC is 9.2 µM (≈ 3.91 µg/mL) in assay [7]; 18.4 µM (≈ 7.81 µg/mL) in assay [8]; 9.2 to 36.7 µM (≈ 3.91 to 15.6 µg/mL) in [9]; 4.6 µM (≈ 1.95 µg/mL) in assay [10]; 0.57 µM (≈ 0.242 µg/mL) in assay [11]; 18.4 µM (≈ 7.81 µg/mL) in assay [12]. Also, the MIC in assay [13] is greater than 73.7 µM; in assay [14], 73.7 µM (≈ 31.3 µg/mL); in assay [15], 36.7 µM (≈ 15.6 µg/mL); in [16], 4.6 µM (≈ 1.95 µg/mL); in [17], 73.7 µM (≈ 31.3 µg/mL); in assay [18], 0.28 µM (≈ 0.119 µg/mL). The MIC in assay [19] was 0.28 µM (≈ 0.119 µg/mL); in assay [20] it was 1.1 µM (≈ 0.467 µg/mL); in [21], 4.6 µM (≈ 1.95 µg/mL); in assay [22], 0.28 µM (≈ 0.119 µg/mL).

Turning to `OCCCCCCNCC(O)(Cn1cncn1)c1ccc(F)cc1F` (stereo not drawn), the MIC in [1] was greater than 88.3 µM; in assay [2] it was greater than 88.3 µM; in assay [3], greater than 88.3 µM; in [4], 88.3 µM (≈ 31.3 µg/mL); in assay [5] it was 88.3 µM (≈ 31.3 µg/mL); in assay [6], greater than 88.3 µM. The MIC in assay [7], in assay [8], in assay [9], in assay [10], in assay [11] and in assay [12] was greater than 88.3 µM in each case. Further, the MIC was greater than 88.3 µM in assay [13]; greater than 88.3 µM in assay [14]; greater than 88.3 µM in assay [15]; greater than 88.3 µM in [16]; greater than 88.3 µM in assay [17]; 88.3 µM (≈ 31.3 µg/mL) in assay [18]. Besides, the MIC was 88.3 µM (≈ 31.3 µg/mL) in assay [19], greater than 88.3 µM in [20], greater than 88.3 µM in [21] and 88.3 µM (≈ 31.3 µg/mL) in [22].

Consider `CCCCCCN(CCCCCC)CC(O)(Cn1cncn1)c1ccc(F)cc1F` (stereo not drawn), for which the MIC in assay [1], in assay [2], in [3], in assay [4], in assay [5] and in [6] was greater than 74.1 µM each time. The MIC was greater than 74.1 µM in assay [7]; greater than 74.1 µM in [8]; greater than 74.1 µM in [9]; greater than 74.1 µM in assay [10]; 74.1 µM (≈ 31.3 µg/mL) in assay [11]; greater than 74.1 µM in assay [12]. For the same compound, the MIC in [13], in [14], in assay [15], in assay [16], in [17] and in [18] was greater than 74.1 µM throughout. Further, the MIC in assay [19] was greater than 74.1 µM; in assay [20], greater than 74.1 µM; in [21], 37.1 µM (≈ 15.7 µg/mL); in [22], greater than 74.1 µM.

On to `CCCCCCCCN(CCCCCCCC)CC(O)(Cn1cncn1)c1ccc(F)cc1F` (stereo not drawn), for which the MIC in assay [1] is greater than 65.4 µM; in assay [2], 65.4 µM (≈ 31.3 µg/mL); in [3], greater than 65.4 µM; in assay [4], 65.4 µM (≈ 31.3 µg/mL); in assay [5], 65.4 µM (≈ 31.3 µg/mL); in [6], greater than 65.4 µM. Further, the MIC in assay [7] was 65.4 µM (≈ 31.3 µg/mL); in assay [8] it was greater than 65.4 µM; in [9], 65.4 µM (≈ 31.3 µg/mL); in assay [10] it was 65.4 µM (≈ 31.3 µg/mL); in assay [11], 2 µM (≈ 0.957 µg/mL); in assay [12], 32.7 µM (≈ 15.7 µg/mL). Also, the minimal inhibitory concentration (MIC) in assay [13] was greater than 65.4 µM; in assay [14], greater than 65.4 µM; in assay [15], 32.6 µM (≈ 15.6 µg/mL); in [16], 16.3 µM (≈ 7.8 µg/mL); in [17] it was 65.4 µM (≈ 31.3 µg/mL); in assay [18], 2 µM (≈ 0.957 µg/mL). Also, the MIC in [19] was 4.1 µM (≈ 1.96 µg/mL); in [20] it was greater than 65.4 µM; in assay [21], greater than 65.4 µM; in assay [22], 4.1 µM (≈ 1.96 µg/mL).
